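1) Cells in 96-well plates. 2) Compound, 48 h, 5 concentrations. 3) Linear interpolation between surrounding doses. 4) Unreached endpoint = highest concentration. Here, GI50 denotes the concentration required for 50% inhibition of growth. TGI: concentration producing complete growth inhibition.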
Tests used:
Test in all cases: NCI anticancer screen, dose series, 48 h
[1] = system: UACC-62 melanoma
[2] = system: SK-MEL-2 melanoma
[3] = system: MDA-MB-231 breast
[4] = system: NCI/ADR-RES ovarian
[5] = system: MCF7 breast
[6] = system: SR leukemia
[7] = system: SK-MEL-28 melanoma
[8] = system: COLO 205 colon
[9] = system: 786-0 renal
[10] = system: SF-295 CNS
[11] = system: SK-OV-3 ovarian
[12] = system: HL-60(TB) leukemia
[13] = system: TK-10 renal
[14] = system: UO-31 renal
[15] = system: HS 578T breast
[16] = system: NCI-H226 lung
[17] = system: DU-145 prostate
[18] = system: SW-620 colon
[19] = system: HCT-15 colon
[20] = system: SF-268 CNS
[21] = system: RPMI-8226 leukemia
[22] = system: MOLT-4 leukemia
[23] = system: SF-539 CNS
[24] = system: HCT-116 colon
[25] = system: OVCAR-5 ovarian
[26] = system: SNB-75 CNS
[27] = system: HT29 colon
[28] = system: NCI-H522 lung
[29] = system: M14 melanoma
[30] = system: U251 CNS
[31] = system: LOX IMVI melanoma
[32] = system: OVCAR-4 ovarian
[33] = system: HOP-92 NSCLC
[34] = system: T-47D breast
[35] = system: MALME-3M melanoma
[36] = system: CAKI-1 renal
[37] = system: OVCAR-8 ovarian
[38] = system: IGROV1 ovarian
[39] = system: NCI-H23 lung
[40] = system: HCC-2998 colon
[41] = system: K-562 leukemia
[42] = system: SN12C renal
[43] = system: BT-549 breast
[44] = system: CCRF-CEM leukemia
[45] = system: EKVX NSCLC
[46] = system: SNB-19 CNS
[47] = system: KM12 colon
[48] = system: UACC-257 melanoma
[49] = system: MDA-MB-435
[50] = system: NCI-H460 lung
[51] = system: A549 NSCLC
[52] = system: ACHN renal
[53] = system: RXF 393 renal
[54] = system: SK-MEL-5 melanoma
[55] = system: HOP-62 NSCLC
[56] = system: PC-3 prostate

Q: What does the source list for CS(=O)(=O)Nc1cc(-c2ccc3ncc(C#N)c(NCc4cccc(F)c4)c3c2)cnc1Cl?
A: GI50 [1]: 0.121 µM; TGI [1]: 1.19 µM; GI50 [2]: 0.122 µM; TGI [2]: 0.374 µM; GI50 [3]: 0.35 µM; TGI [3]: 4.96 µM; GI50 [4]: 1.99 µM; TGI [4]: 40.3 µM; GI50 [5]: 0.118 µM; TGI [5]: 9.85 µM; GI50 [6]: 0.112 µM; TGI [6]: 2.24 µM; GI50 [7]: 0.191 µM; TGI [7]: 4.69 µM; GI50 [8]: 0.357 µM; TGI [8]: 1.65 µM; GI50 [9]: 0.31 µM; TGI [9]: 5.52 µM; GI50 [10]: 0.237 µM; TGI [10]: 2.43 µM; GI50 [11]: 0.263 µM; TGI [11]: 1.76 µM; GI50 [12]: 0.33 µM; TGI [12]: 4.45 µM; GI50 [13]: 0.141 µM; TGI [13]: 1.22 µM; GI50 [14]: 0.162 µM; TGI [14]: > 21.5 µM; GI50 [15]: 0.0513 µM; TGI [15]: 0.451 µM; GI50 [16]: 0.363 µM; TGI [16]: 22.8 µM; GI50 [17]: 0.336 µM; TGI [17]: 11.8 µM; GI50 [18]: 0.344 µM; TGI [18]: 10.3 µM; GI50 [19]: 0.289 µM; TGI [19]: 11.8 µM; GI50 [20]: 0.196 µM; TGI [20]: 3.61 µM; GI50 [21]: 0.287 µM; TGI [21]: 2.16 µM; GI50 [22]: 0.218 µM; TGI [22]: 1.98 µM; GI50 [23]: 0.195 µM; TGI [23]: 1.85 µM; GI50 [24]: 0.277 µM; TGI [24]: 1.48 µM; GI50 [25]: 0.473 µM; TGI [25]: 12 µM; GI50 [26]: 0.0343 µM; TGI [26]: 0.448 µM; GI50 [27]: 0.502 µM; TGI [27]: 4.64 µM; GI50 [28]: 0.369 µM; TGI [28]: 7.86 µM; GI50 [29]: 0.254 µM; TGI [29]: 5.86 µM; GI50 [30]: 0.197 µM; TGI [30]: 2.68 µM; GI50 [31]: 0.2 µM; TGI [31]: 1.11 µM; GI50 [32]: 0.309 µM; TGI [32]: > 27.7 µM; GI50 [33]: 0.0363 µM; TGI [33]: 0.459 µM; GI50 [34]: 0.0635 µM; TGI [34]: 1.46 µM; GI50 [35]: 0.0793 µM; TGI [35]: 0.559 µM; GI50 [36]: 0.163 µM; TGI [36]: 2.04 µM; GI50 [37]: 0.366 µM; TGI [37]: 16.4 µM; GI50 [38]: 0.122 µM; TGI [38]: 0.972 µM; GI50 [39]: 0.348 µM; TGI [39]: 13.6 µM; GI50 [40]: 0.367 µM; TGI [40]: 6.56 µM; GI50 [41]: 0.274 µM; TGI [41]: > 59.3 µM; GI50 [42]: 0.278 µM; TGI [42]: 32.4 µM; GI50 [43]: 0.0736 µM; TGI [43]: 0.678 µM; GI50 [44]: 0.164 µM; TGI [44]: 20.4 µM; GI50 [45]: 0.381 µM; TGI [45]: 5.13 µM; GI50 [46]: 0.292 µM; TGI [46]: 11 µM; GI50 [47]: 0.347 µM; TGI [47]: 2.61 µM; GI50 [48]: 0.335 µM; TGI [48]: 7.14 µM; GI50 [49]: 0.258 µM; TGI [49]: 9.5 µM; GI50 [50]: 0.509 µM; TGI [50]: 11.4 µM; GI50 [51]: 0.695 µM; TGI [51]: 6.8 µM; GI50 [52]: 0.57 µM; TGI [52]: > 45.1 µM; GI50 [53]: 0.11 µM; TGI [53]: 0.784 µM; GI50 [54]: 0.179 µM; TGI [54]: 0.403 µM; GI50 [55]: 0.22 µM; TGI [55]: 4.15 µM; GI50 [56]: 0.284 µM; TGI [56]: 5.71 µM

From PubChem BioAssay (NCI)
